Reference: patent US20250129135A1, “Multi-Agonist and Use Thereof” (priority 2021, published 2025)
Starred links: 1 amine or outer side, 2 acyl side, 3 side chain; linkers in the order of their positions; H or OH if unused. Non-standard residues stand in square brackets, D forms with d. Residues, ends and D or L forms follow the SMILES beside them. Groups on a side chain read outwards from the residue. *: point of attachment. C20 diacid = O=C(O)CCCCCCCCCCCCCCCCCCC(=O)*; αMePhe(2-F) = C[C@](N)(Cc1ccccc1F)C(=O)O; γGlu = O=C(O)[C@H](CCC(=O)[*:2])N[*:1]; αMeF = C[C@](N)(Cc1ccccc1)C(=O)O; αMeL = CC(C)C[C@](C)(N)C(=O)O; AEEA = NCCOCCOCC(=O)O; Ac3c = NC1(C(=O)O)CC1; Aib = CC(C)(N)C(=O)O

Key:
[1] = system: 3T3-L1 adipocytes; settings: for Rel. A (Relative Activity) on 3T3-L1 adipocyte: relative to GIP
How it was run: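 Mouse 3T3-L1 preadipocytes were differentiated with IBMX, dexamethasone and insulin for 5 days, then insulin plus 10 uM rosiglitazone for 3 days, then 10% FBS medium for 2–3 days. Mature adipocytes received 10-point, 3-fold compound dilutions for 60 min at room temperature. cAMP was read by kit detection reagent after a further 60 min, with concentration-effect curves fitted.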

[2] = target: T1, Human GIP R (Homo sapiens, UniProt P48546); test: cAMP (HTRF) activity in CHO cells stably overexpressing GIP receptor; type: cell-based; settings: for Human GIP R Rel. A (Relative Activity): EC50 of human GIP / EC50 of compound; for EC50: stable transfected cell cAMP activity, at least 3 independent tests
T1 construct: expressed in transfected cells; host or cells: CHO
T1 sequence (P48546 22-466): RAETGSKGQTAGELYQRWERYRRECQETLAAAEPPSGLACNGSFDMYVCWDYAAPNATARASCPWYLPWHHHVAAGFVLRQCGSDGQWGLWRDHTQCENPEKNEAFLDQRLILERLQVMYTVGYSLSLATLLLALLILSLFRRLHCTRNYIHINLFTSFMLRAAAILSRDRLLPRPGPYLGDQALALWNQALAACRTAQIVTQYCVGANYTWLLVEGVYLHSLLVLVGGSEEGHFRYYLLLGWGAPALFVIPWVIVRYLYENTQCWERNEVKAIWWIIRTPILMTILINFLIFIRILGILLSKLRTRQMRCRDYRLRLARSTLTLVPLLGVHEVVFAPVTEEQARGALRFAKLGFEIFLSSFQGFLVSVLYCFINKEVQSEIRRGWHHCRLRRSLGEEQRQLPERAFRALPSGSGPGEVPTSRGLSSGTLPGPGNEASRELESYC
How it was run: (§1)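 Agonism was assessed from intracellular cAMP by HTRF. Cells resuspended in HBSS were treated with compound for 60 minutes at room temperature, then with detection reagent for a further 60 minutes. EC50 (nM) values came from concentration–response curves.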

[3] = target: Human GLP-1R (Homo sapiens, UniProt P43220); test: cAMP (HTRF) activity in HEK-293 cells stably overexpressing human GLP-1 receptor; type: cell-based; design: expressed in transfected cells; host or cells: HEK-293; settings: for Human GLP-1R Rel. A (Relative Activity): EC50 of human GLP-1 (7-37) / EC50 of compound; for EC50: stable transfected cell cAMP activity, at least 3 independent tests
How it was run: as §1

[4] = system: RIN-m5F cells; type: cell-based, rat; settings: for Rel. A (Relative Activity) on RIN-m5F: relative to GLP-1(7-37)
How it was run: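 cAMP production measured in RIN-m5F cells resuspended in HBSS; compounds incubated 60 min at room temperature, then detection reagent added for a further 60 min before read-out.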

[5] = target: T2, Human GCG R (Homo sapiens, UniProt P47871); test: cAMP (HTRF) activity in HEK-293 cells stably overexpressing human GCG receptor; type: cell-based; settings: EC50 of human GCG / EC50 of compound
T2 construct: expressed in transfected cells; host or cells: HEK-293
How it was run: as §1

[6] = system: human primary liver cells; type: cell-based; settings: for Rel. A (Relative Activity) on human primary liver cells: relative to GCG
How it was run: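 Human primary hepatocytes, thawed at 37° C and resuspended in HBSS, exposed to compound for 60 min at room temperature. Detection reagent then added for 60 min before cAMP readout.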

T2 sequence (P47871 26-477): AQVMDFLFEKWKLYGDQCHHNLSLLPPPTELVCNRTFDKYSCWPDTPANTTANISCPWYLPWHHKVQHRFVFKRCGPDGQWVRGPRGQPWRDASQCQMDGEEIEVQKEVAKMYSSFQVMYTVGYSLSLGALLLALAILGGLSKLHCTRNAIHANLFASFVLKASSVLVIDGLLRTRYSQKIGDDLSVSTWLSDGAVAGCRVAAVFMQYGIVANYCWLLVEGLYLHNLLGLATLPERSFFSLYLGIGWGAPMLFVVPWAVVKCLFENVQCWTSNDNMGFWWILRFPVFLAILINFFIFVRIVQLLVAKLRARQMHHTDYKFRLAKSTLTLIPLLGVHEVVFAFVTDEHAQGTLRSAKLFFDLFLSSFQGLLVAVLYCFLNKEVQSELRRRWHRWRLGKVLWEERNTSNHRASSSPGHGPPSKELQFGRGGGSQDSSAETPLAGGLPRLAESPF
Human GLP-1R, sequence (P43220 24-463): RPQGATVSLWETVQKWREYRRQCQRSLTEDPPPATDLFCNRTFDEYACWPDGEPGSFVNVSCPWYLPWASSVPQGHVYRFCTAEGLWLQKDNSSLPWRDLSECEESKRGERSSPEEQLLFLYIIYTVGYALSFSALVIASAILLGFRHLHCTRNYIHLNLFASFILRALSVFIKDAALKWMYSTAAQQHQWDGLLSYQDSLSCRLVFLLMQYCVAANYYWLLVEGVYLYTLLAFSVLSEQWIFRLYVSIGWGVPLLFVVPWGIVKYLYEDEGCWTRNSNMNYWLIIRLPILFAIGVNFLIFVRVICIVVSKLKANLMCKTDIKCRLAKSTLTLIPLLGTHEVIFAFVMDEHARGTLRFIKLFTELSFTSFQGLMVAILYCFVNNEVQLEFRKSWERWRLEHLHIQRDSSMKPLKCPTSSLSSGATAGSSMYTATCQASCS

SMILES	EC50 [1] [nM]	Rel. A (Relative Activity) on 3T3-L1 adipocyte [1] [%]	Human GIP R Rel. A (Relative Activity) [2] [%]	Human GLP-1R Rel. A (Relative Activity) [3] [%]	EC50 [3] [nM]	EC50 [4] [nM]	Rel. A (Relative Activity) on RIN-m5F [4] [%]	Human GCG R Rel. A (Relative Activity) [5] [%]	EC50 [6] [nM]	Rel. A (Relative Activity) on human primary liver cells [6] [%]	EC50 [2] [nM]
CC[C@H](C)[C@H](NC(=O)[C@H](Cc1ccccc1)NC(=O)[C@H](C)NC(=O)C(C)(C)NC(=O)[C@H](CCC(N)=O)NC(=O)[C@H](C)NC(=O)[C@H](CCCCNC(=O)COCCOCCNC(=O)COCCOCCNC(=O)CC[C@H](NC(=O)CCCCCCCCCCCCCCCCCCC(=O)O)C(=O)O)NC(=O)[C@H](CCCCN)NC(=O)[C@H](CC(=O)O)NC(=O)[C@H](CC(C)C)NC(=O)[C@H](CC(C)C)NC(=O)[C@@H](NC(=O)[C@H](CO)NC(=O)[C@H](Cc1ccc(O)cc1)NC(=O)[C@H](CC(=O)O)NC(=O)[C@H](CO)NC(=O)[C@@H](NC(=O)[C@](C)(Cc1ccccc1F)NC(=O)[C@@H](NC(=O)CNC(=O)[C@H](CCC(N)=O)NC(=O)C(C)(C)NC(=O)[C@@H](N)Cc1ccc(O)cc1)[C@@H](C)O)[C@@H](C)O)[C@@H](C)CC)C(=O)N[C@@H](CCC(=O)O)C(=O)N[C@@H](Cc1ccccc1)C(=O)N[C@@H](CC(C)C)C(=O)N[C@@H](CC(C)C)C(=O)N[C@@H](CCC(=O)O)C(=O)N[C@@H](CO)C(=O)N[C@@H](Cc1c[nH]cn1)C(=O)N1CCC[C@H]1C(=O)N[C@@H](CO)C(=O)N[C@@H](CO)C(=O)NC(C)(C)C(=O)N[C@@H](Cc1c[nH]cn1)C(=O)N1CCC[C@H]1C(=O)N1CCC[C@H]1C(=O)NC1(C(=O)N[C@@H](CO)C(N)=O)CC1 [Compound 41] (H-Y[Aib]QGT[αMePhe(2-F)]TSDYSILLDKK([AEEA-AEEA-γGlu-C20 diacid])AQ[Aib]AFIEFLLESHPSS[Aib]HPP[Ac3c]S-NH2; N-terminus assumed)	1.51	252.12	247.95	366.67	0.012	0.136	758.82	70.37	0.907	429.00	
CC[C@H](C)[C@H](NC(=O)[C@H](Cc1ccccc1)NC(=O)[C@H](C)NC(=O)C(C)(C)NC(=O)[C@H](CCC(N)=O)NC(=O)[C@H](C)NC(=O)[C@H](CCCCNC(=O)COCCOCCNC(=O)COCCOCCNC(=O)CC[C@H](NC(=O)CCCCCCCCCCCCCCCCCCC(=O)O)C(=O)O)NC(=O)[C@H](CCCCN)NC(=O)[C@H](CC(=O)O)NC(=O)[C@H](CC(C)C)NC(=O)[C@](C)(CC(C)C)NC(=O)[C@@H](NC(=O)[C@H](CO)NC(=O)[C@H](Cc1ccc(O)cc1)NC(=O)[C@H](CC(=O)O)NC(=O)[C@H](CO)NC(=O)[C@@H](NC(=O)[C@](C)(Cc1ccccc1)NC(=O)[C@@H](NC(=O)CNC(=O)[C@H](CCC(N)=O)NC(=O)C(C)(C)NC(=O)[C@@H](N)Cc1ccc(O)cc1)[C@@H](C)O)[C@@H](C)O)[C@@H](C)CC)C(=O)N[C@@H](CCC(=O)O)C(=O)N[C@@H](Cc1ccccc1)C(=O)N[C@@H](CC(C)C)C(=O)N[C@@H](CC(C)C)C(=O)N[C@@H](CCC(=O)O)C(=O)N[C@@H](CO)C(=O)NC(C)(C)C(=O)N1CCC[C@H]1C(=O)N[C@@H](CO)C(=O)N[C@@H](CO)C(=O)NCC(=O)N[C@@H](C)C(=O)N1CCC[C@H]1C(=O)N1CCC[C@H]1C(=O)NC1(C(=O)N[C@@H](CO)C(N)=O)CC1 [Compound 28] (H-Y[Aib]QGT[αMeF]TSDYSI[αMeL]LDKK([AEEA-AEEA-γGlu-C20 diacid])AQ[Aib]AFIEFLLES[Aib]PSSGAPP[Ac3c]S-NH2)	9.85	38.61	1645.45	183.33		0.784	131.63	37.01	5.21	74.74	0.011
CC[C@H](C)[C@H](NC(=O)[C@H](Cc1ccccc1)NC(=O)[C@H](C)NC(=O)C(C)(C)NC(=O)[C@H](CCC(N)=O)NC(=O)[C@H](C)NC(=O)[C@H](CCCCNC(=O)COCCOCCNC(=O)COCCOCCNC(=O)CC[C@H](NC(=O)CCCCCCCCCCCCCCCCCCC(=O)O)C(=O)O)NC(=O)[C@H](CCCCN)NC(=O)[C@H](CC(=O)O)NC(=O)[C@H](CC(C)C)NC(=O)[C@](C)(CC(C)C)NC(=O)[C@@H](NC(=O)[C@H](CO)NC(=O)[C@H](Cc1ccc(O)cc1)NC(=O)[C@H](CC(=O)O)NC(=O)[C@H](CO)NC(=O)[C@@H](NC(=O)[C@](C)(Cc1ccccc1F)NC(=O)[C@@H](NC(=O)CNC(=O)[C@H](CCC(N)=O)NC(=O)C(C)(C)NC(=O)[C@@H](N)Cc1ccc(O)cc1)[C@@H](C)O)[C@@H](C)O)[C@@H](C)CC)C(=O)N[C@@H](CCC(=O)O)C(=O)N[C@@H](Cc1ccc(O)cc1)C(=O)N[C@@H](CC(C)C)C(=O)N[C@@H](CC(C)C)C(=O)N[C@@H](CCC(=O)O)C(=O)N[C@@H](CO)C(=O)N[C@@H](Cc1c[nH]cn1)C(=O)N1CCC[C@H]1C(=O)N[C@@H](CO)C(=O)N[C@@H](CO)C(=O)NC(C)(C)C(=O)N[C@@H](Cc1c[nH]cn1)C(=O)N1CCC[C@H]1C(=O)N1CCC[C@H]1C(=O)NC1(C(=O)N[C@@H](CO)C(N)=O)CC1 [Compound 43] (H-Y[Aib]QGT[αMePhe(2-F)]TSDYSI[αMeL]LDKK([AEEA-AEEA-γGlu-C20 diacid])AQ[Aib]AFIEYLLESHPSS[Aib]HPP[Ac3c]S-NH2)	1.36	279.97	441.46	440.00	0.01	0.26	396.92	44.88	0.463	840.39	
CC[C@H](C)[C@H](NC(=O)[C@H](Cc1ccccc1)NC(=O)[C@H](C)NC(=O)C(C)(C)NC(=O)[C@H](CCC(N)=O)NC(=O)[C@H](C)NC(=O)[C@H](CCCCNC(=O)COCCOCCNC(=O)COCCOCCNC(=O)CC[C@H](NC(=O)CCCCCCCCCCCCCCCCCCC(=O)O)C(=O)O)NC(=O)[C@H](CCCCN)NC(=O)[C@H](CC(=O)O)NC(=O)[C@H](CC(C)C)NC(=O)[C@](C)(CC(C)C)NC(=O)[C@@H](NC(=O)[C@H](CO)NC(=O)[C@H](Cc1ccc(O)cc1)NC(=O)[C@H](CC(=O)O)NC(=O)[C@H](CO)NC(=O)[C@@H](NC(=O)[C@](C)(Cc1ccccc1)NC(=O)[C@@H](NC(=O)CNC(=O)[C@H](CCC(N)=O)NC(=O)C(C)(C)NC(=O)[C@@H](N)Cc1ccc(O)cc1)[C@@H](C)O)[C@@H](C)O)[C@@H](C)CC)C(=O)N[C@@H](CCC(=O)O)C(=O)N[C@@H](Cc1ccccc1)C(=O)N[C@@H](CC(C)C)C(=O)N[C@@H](CC(C)C)C(=O)N[C@@H](CCC(=O)O)C(=O)N[C@H](C(=O)NC(C)(C)C(=O)N1CCC[C@H]1C(=O)N[C@@H](CO)C(=O)N[C@@H](CO)C(=O)NCC(=O)N[C@@H](C)C(=O)N1CCC[C@H]1C(=O)N1CCC[C@H]1C(=O)NC1(C(=O)N[C@@H](CO)C(N)=O)CC1)[C@@H](C)O [Compound 30] (H-Y[Aib]QGT[αMeF]TSDYSI[αMeL]LDKK([AEEA-AEEA-γGlu-C20 diacid])AQ[Aib]AFIEFLLET[Aib]PSSGAPP[Ac3c]S-NH2; N-terminus assumed)	7.08	53.67	1206.67	220.00	0.02	0.878	117.54	32.95	7.83	49.73	0.015
